#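 Step 1: Grow cells in 96-well plates. Step 2: Expose to compound for 48 hours at 5 concentrations. Step 3: Interpolate endpoints linearly; if unreached, use highest concentration. GI50 is the concentration that inhibits growth by half.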 The source made the active and inactive calls. Cut-off read from the data, not from the text of the source: active = GI50 up to about 1.1 µM and inactive = higher.
# How the values were obtained:
# Assay in all cases: NCI anticancer screen, dose series, 48 h
# [1] = tested on: KM-20L2
# [2] = tested on: XF498
# [3] = tested on: SNB-78
# [4] = tested on: DLD-1
# [5] = tested on: RXF 631
# [6] = tested on: DMS-273
# [7] = tested on: M19-MEL
# [8] = tested on: LXFL 529
# [9] = tested on: HOP-18
SMILES,GI50 [1],GI50 [2],GI50 [3],GI50 [4],GI50 [5],GI50 [6],GI50 [7],GI50 [8],GI50 [9]
Cc1ccc(NC(=O)C(=O)Cc2nc3ccccc3o2)c(C)c1,> 100 µM (inactive),> 100 µM (inactive),> 100 µM (inactive),> 100 µM (inactive),> 100 µM (inactive),> 100 µM (inactive),> 100 µM (inactive),> 100 µM (inactive),–
O=c1/c(=C/c2c(O)ccc3ccccc23)sc2nc3ccccc3n12,> 100 µM (inactive),> 100 µM (inactive),> 100 µM (inactive),> 100 µM (inactive),> 100 µM (inactive),> 100 µM (inactive),> 100 µM (inactive),> 100 µM (inactive),> 100 µM (inactive)
O=[PH](O)c1ccsc1,> 100 µM (inactive),–,–,> 100 µM (inactive),> 100 µM (inactive),> 100 µM (inactive),> 100 µM (inactive),> 100 µM (inactive),> 100 µM (inactive)
COc1ccc(/C=C/CN(C)CCc2ccccc2)cc1OC,42.3 µM (inactive),–,> 100 µM (inactive),–,–,> 100 µM (inactive),> 100 µM (inactive),62.1 µM (inactive),–
CNC(=O)CN(CC(N)=O)C(=O)NC,> 100 µM (inactive),> 100 µM (inactive),> 100 µM (inactive),> 100 µM (inactive),> 100 µM (inactive),> 100 µM (inactive),> 100 µM (inactive),> 100 µM (inactive),–
O=C(CCc1n[nH]c(=S)o1)Nc1cc(Cl)c(Cl)cc1Cl,45.8 µM (inactive),–,> 100 µM (inactive),29 µM (inactive),44.6 µM (inactive),24.3 µM (inactive),> 100 µM (inactive),44.8 µM (inactive),58.7 µM (inactive)
COc1cccc2ccc3c(c12)C(=O)OC31CCc2c(C)cccc21 (stereo not drawn),15 µM (inactive),14.4 µM (inactive),39.1 µM (inactive),8.79 µM (inactive),–,6.81 µM (inactive),15.5 µM (inactive),15 µM (inactive),> 31.6 µM (inactive)
O=C1CCC2CCc3cccc4oc1c2c34 (stereo not drawn),> 100 µM (inactive),> 100 µM (inactive),> 100 µM (inactive),> 100 µM (inactive),–,> 100 µM (inactive),> 100 µM (inactive),> 100 µM (inactive),> 100 µM (inactive)
C=C1C(C(=O)O)C1C(=O)O (stereo not drawn),> 100 µM (inactive),> 100 µM (inactive),> 100 µM (inactive),> 100 µM (inactive),–,> 100 µM (inactive),> 100 µM (inactive),–,> 100 µM (inactive)
Cc1ccc(S(=O)(=O)n2c(-c3ccccc3)c(-c3ccccc3)c3ccccc32)cc1,> 100 µM (inactive),> 100 µM (inactive),–,> 100 µM (inactive),–,> 100 µM (inactive),> 100 µM (inactive),> 100 µM (inactive),> 100 µM (inactive)
CCOc1cc(/C=C/C=C/C=C/c2ccc(N(C)C)cc2)[s+]c2ccccc12,–,23.8 µM (inactive),22.5 µM (inactive),–,> 100 µM (inactive),73.8 µM (inactive),25 µM (inactive),16.3 µM (inactive),–
O=C1NCCS(=O)(=O)N2CCC[C@@H]12,> 100 µM (inactive),–,> 100 µM (inactive),> 100 µM (inactive),> 100 µM (inactive),–,> 100 µM (inactive),> 100 µM (inactive),> 100 µM (inactive)
COCCNC(=O)C1C(=O)C(=O)N(CCOC)C1=O (stereo not drawn),> 100 µM (inactive),–,> 100 µM (inactive),> 100 µM (inactive),> 100 µM (inactive),> 100 µM (inactive),> 100 µM (inactive),> 100 µM (inactive),> 100 µM (inactive)
CC(C)CC(NC(=O)OC(C)(C)C)C(=O)Nc1ccc(Nc2nc(F)nc(-c3c4ccccc4c4n3CCS4)n2)cc1 (stereo not drawn),18.3 µM (inactive),25.2 µM (inactive),21.2 µM (inactive),20 µM (inactive),–,16.9 µM (inactive),–,19.5 µM (inactive),24.4 µM (inactive)
O=C(O)CCSC(=O)Nc1cccc([N+](=O)[O-])c1,–,–,> 100 µM (inactive),72.1 µM (inactive),–,> 100 µM (inactive),–,> 100 µM (inactive),–
COc1ccc2c(c1)CCN1C3=C(CCC3)C(=O)C[C@@H]21,> 100 µM (inactive),15.9 µM (inactive),> 100 µM (inactive),–,–,> 100 µM (inactive),> 100 µM (inactive),> 100 µM (inactive),> 100 µM (inactive)
CCOc1ccc([Se][Se]c2ccc(OCC)cc2)cc1,> 100 µM (inactive),–,32.7 µM (inactive),> 100 µM (inactive),44.5 µM (inactive),79.1 µM (inactive),25.6 µM (inactive),26 µM (inactive),> 100 µM (inactive)
CSc1ncnc2c1CCN2,–,–,> 100 µM (inactive),–,–,–,> 100 µM (inactive),> 100 µM (inactive),–
CCOC(=O)C(NC(=O)c1nc[nH]c1[N+](=O)[O-])C(C)C (stereo not drawn),–,19.9 µM (inactive),–,25 µM (inactive),–,53.6 µM (inactive),> 100 µM (inactive),74.3 µM (inactive),–
CCOC(=O)C1Sc2ccccc2N=C1C (stereo not drawn),> 100 µM (inactive),> 100 µM (inactive),> 100 µM (inactive),> 100 µM (inactive),–,–,> 100 µM (inactive),> 100 µM (inactive),> 100 µM (inactive)
COC(=O)C(=O)C(C(=O)OC)C(=O)C(=O)Nc1cc(Cl)c(C)cc1S(=O)(=O)O (stereo not drawn),> 100 µM (inactive),> 100 µM (inactive),> 100 µM (inactive),> 100 µM (inactive),–,> 100 µM (inactive),> 100 µM (inactive),> 100 µM (inactive),> 100 µM (inactive)
O=C(COc1ccccc1Cl)N1N=C(c2ccc(Cl)cc2)CC1(O)c1ccccc1 (stereo not drawn),> 100 µM (inactive),> 100 µM (inactive),> 100 µM (inactive),> 100 µM (inactive),> 100 µM (inactive),> 100 µM (inactive),> 100 µM (inactive),> 100 µM (inactive),–
COC(=O)C12C3C4C5(C(=O)OC)C(C1C35C(=O)N(C(C)C)C(C)C)C42C(=O)N(C(C)C)C(C)C (stereo not drawn),> 50 µM (inactive),–,> 50 µM (inactive),> 25.6 µM (inactive),–,> 30.8 µM (inactive),> 47.8 µM (inactive),> 50 µM (inactive),> 50 µM (inactive)
COc1cc2c(cc1O)[C@H](C)C(c1ccccc1OC)O2 (stereo partly drawn),5.07 µM (inactive),5.19 µM (inactive),5.78 µM (inactive),4.75 µM (inactive),–,2.67 µM (inactive),3.77 µM (inactive),8 µM (inactive),> 100 µM (inactive)
O=C(Cc1ccccc1F)NC1=C(Cl)C(=O)c2ccccc2C1=O,8.43 µM (inactive),0.706 µM (active),–,–,–,1.52 µM (inactive),0.461 µM (active),0.405 µM (active),0.668 µM (active)
CCCN(CCC)C(=O)Cc1c2n(c3ccccc13)CCCc1ccccc1-2,14.4 µM (inactive),15.1 µM (inactive),12.3 µM (inactive),13.6 µM (inactive),–,11 µM (inactive),14.8 µM (inactive),13.6 µM (inactive),16.3 µM (inactive)
O=c1c(O)c(-c2ccc(O)c(O)c2)oc2cc(O)cc(O)c12 [QUERCETIN],83.6 µM (inactive),72.8 µM (inactive),> 100 µM (inactive),37.2 µM (inactive),38.1 µM (inactive),49.7 µM (inactive),77.8 µM (inactive),> 100 µM (inactive),> 100 µM (inactive)
COc1cc2ccc(=O)oc2cc1O [SCOPOLETIN],187 µM (inactive),63.7 µM (inactive),307 µM (inactive),83.2 µM (inactive),–,36.3 µM (inactive),72.4 µM (inactive),–,150 µM (inactive)
